The subject of series [1] is OT-I CD8+ T cells. As to the kind of experiment: In vitro central memory (Tcm) differentiation of OT-I CD8+ T cells activated with SIINFEKL peptide and IL-2 with metabolites. The format is cell-based, mice. The note with it: day 8; metabolite-supplemented medium (arginine 3 mM, 3-methylhistidine 3 mM, DHB 100 μM, sodium ferulate 100 μM). As for the experimental part:
(§1) FIG. 2: a) OT-I CD8+ T cells were cultured with different metabolites in vitro as indicated, b,c) shown is the frequency of CD44^+CD62L^+ Tcm CD8+ T cells on day 8. d) OT-I CD8+ T cells were activated with α-CD3/α-CD28 antibodies in presence of metabolites as indicated and shown is the Tcm CD8+ T cells on day 7. Data represent the mean±s.e.m. (n=5).
(§2) Splenocytes from OT-I mice were obtained aseptically. The cells were cultured in 96-well plates (1×10^5 cells per well). For Tcm differentiation study, cells were activated with SIINFEKL peptide (4×10^−9M) in the presence of various metabolites (arginine: 3 mM; 3-methylhistidine: 3 mM; N-acetylneuraminate: 100 μM; disodium sebacate: 100 μM; DHB: 100 μM; pantothenate: 100 μM; γ-aminobutyric acid: 100 μM; glycerol: 100 μM; AICAR: 100 μM, sodium ferulate: 100 μM) for 3 days. Then cells were washed three times with T-cell medium and further cultured with IL-2 (10 ng ml^−1; PeproTech) in the presence of metabolites for 5 days. The cells were then washed twice and re-activated with SIINFEKL peptide (10 μM) for 2 h. The suspension cells were collected, blocked with CD16/32 antibody and stained with the fixable viability dye eFluor 450, FITC-CD44 rat anti-human/mouse and PE-CD62L monoclonal antibody. To test if the central memory CD8+ T cells differentiation is dependent on dendritic cells, CD8 T cells isolated from the spleen in OT-I mice were incubated in the 96-well plate, which was precoated with anti-hamster IgG antibody. […] (1 μg mL^−1) and IL-2 (100 U mL^−1) were added into each well in the presence of 3-methylhistidine (3 mM), DHB (100 μM), or sodium ferulate (100 μM) for 2 days. Then cells were washed for three times to remove α-CD3/α-CD28 antibodies and further incubated with metabolites and IL-2 (10 ng ml^−1) for 5 days. Thereafter, cells were collected for central memory CD8^+ T cells analysis. For CD8^+ T cells survival study, cells were activated with antigen peptide as above, following with thoroughly washing, and incubation in presence of IL-2 for 2 days. Metabolites were added during this incubation (arginine: 3 mM, 1 mM; 3-methylhistidine: 3 mM, 1 mM, 500 μM, 100 μM; N-acetylneuraminate: 100 μM; disodium sebacate: 100 μM; DHB: 100 μM, 50 μM, 20 μM; pantothenate: 100 μM; γ-aminobutyric acid: 100 μM; glycerol: 100 μM; AICAR: 100 μM). Then cells were further incubated in absence of both IL-2 and metabolites for 36 h to induce the apoptosis/dead. For Tcf1^+CD8^+ differentiation study, cells were activated with antigen peptide as above, followed by thoroughly washing, and incubation with metabolites in presence of IL-2 for 3 days. […] Tcf1^+CD8^+, CD44^+CD62L^+CD8^+ and survival (stained with Annexin V-APC and PI) T cells were detected via flow cytometry.

Series [2] concerns OT-I CD8+ T cells. As to the kind of experiment: Tcm differentiation of isolated OT-I CD8+ T cells activated with α-CD3/α-CD28 in the absence of dendritic cells. It is filed as cell-based, mice. The following applies: α-CD3/α-CD28 activation; 3-methylhistidine 3 mM, DHB 100 μM; day 7. As for the experimental part:
as §1
Splenocytes from OT-I mice were obtained aseptically. The cells were cultured in 96-well plates (1×10^5 cells per well). For Tcm differentiation study, cells were activated with SIINFEKL peptide (4×10^−9M) in the presence of various metabolites (arginine: 3 mM; 3-methylhistidine: 3 mM; N-acetylneuraminate: 100 μM; disodium sebacate: 100 μM; DHB: 100 μM; pantothenate: 100 μM; γ-aminobutyric acid: 100 μM; glycerol: 100 μM; AICAR: 100 μM, sodium ferulate: 100 μM) for 3 days. Then cells were washed three times with T-cell medium and further cultured with IL-2 (10 ng ml^−1; PeproTech) in the presence of metabolites for 5 days. The cells were then washed twice and re-activated with SIINFEKL peptide (10 μM) for 2 h. The suspension cells were collected, blocked with CD16/32 antibody and stained with the fixable viability dye eFluor 450, FITC-CD44 rat anti-human/mouse and PE-CD62L monoclonal antibody. […] Tcf1^+CD8^+, CD44^+CD62L^+CD8^+ and survival (stained with Annexin V-APC and PI) T cells were detected via flow cytometry.

The subject of series [3] is OT-I CD8+ T cells. As to the kind of experiment: Tcf1+CD8+ differentiation of OT-I T cells with metabolites. The format is cell-based, mice. The note with it: day 6. As for the experimental part:
FIG. 3: a) OT-I CD8+ T cells were cultured with different metabolites in vitro as indicated, b,c) shown are the frequency of the Tcf1^+CD8+ T cells and the representative flow cytometry plots on day 6. Data represent the mean±s.e.m. (n=5).
as §2, with “days.” for “days. Metabolites were added during this incubation (arginine: 3 mM, 1 mM; 3-methylhistidine: 3 mM, 1 mM, 500 μM, 100 μM; N-acetylneuraminate: 100 μM; disodium sebacate: 100 μM; DHB: 100 μM, 50 μM, 20 μM; pantothenate: 100 μM; γ-aminobutyric acid: 100 μM; glycerol: 100 μM; AICAR: 100 μM). Then cells were further incubated in absence of both IL-2 and metabolites for 36 h to induce the apoptosis/dead. For Tcf1^+CD8^+ differentiation study, cells were activated with antigen peptide as above, followed by thoroughly washing, and incubation with metabolites in presence of IL-2 for 3 days.”

Series [4] relates to OT-I CD8+ T cells. Nature of the series: CD8+ T cell survival upon IL-2 withdrawal (Annexin V/PI). It is filed as cell-based, mice. The following applies: dependent on the dose of metabolites. As for the experimental part:
FIG. 4: a) OT-I CD8+ T cells were cultured with different metabolites in vitro as indicated, b,c) shown are the level of survival CD8+ T cells (Annexin V^−PI^−) as well as the representative flow cytometry plots on day 5.5. Data represent the mean±s.e.m. (n=5).
as §2, with “days.” for “days. Metabolites were added during this incubation (arginine: 3 mM, 1 mM; 3-methylhistidine: 3 mM, 1 mM, 500 μM, 100 μM; N-acetylneuraminate: 100 μM; disodium sebacate: 100 μM; DHB: 100 μM, 50 μM, 20 μM; pantothenate: 100 μM; γ-aminobutyric acid: 100 μM; glycerol: 100 μM; AICAR: 100 μM). Then cells were further incubated in absence of both IL-2 and metabolites for 36 h to induce the apoptosis/dead. For Tcf1^+CD8^+ differentiation study, cells were activated with antigen peptide as above, followed by thoroughly washing, and incubation with metabolites in presence of IL-2 for 3 days.”

Series [5] has as its system CT26 colon carcinoma cells. Nature of the series: CT26 tumor model, intratumoral metabolites plus α-PD-1. The format is in vivo, BALB/c mice. As for the experimental part:
FIG. 5: a) Therapeutic treatment regimen. BALB/c mice were s.c. inoculated with 1.5×10^5 CT26 colon carcinoma cells. The candidate metabolites were injected intratumorally every other day, 100 μg α-PD-1 was i.p. injected on days 9, 12, 16 and 20. b) Average tumor growth, c) individual tumor growth, and d) overall Kaplan-Meier survival are shown. Data represent the mean±s.e.m. (n=5).
(§3) Animals were cared for following the federal, state and local guidelines. All work conducted on animals was in accordance with and approved by the Institutional Animal Care and Use Committee (IACUC). Female (6-8 weeks old) BALB/c mice from Jackson Laboratory were inoculated with 1.5×10^5 CT26 cells per mouse on the right flank by s.c. injection. Tumor-bearing mice were randomly assigned to different treatment groups. For intratumoral injection study, the mice were injected with 3-methylhistidine (dose: 1 mg per mouse), sodium hippurate (dose: 1 mg per mouse), disodium sebacate (dose: 1 mg per mouse), sodium ferulate (dose: 1 mg per mouse), or DHB (dose: 0.5 mg per mouse) in 40 μL PBS buffer for every other day. The mice were i.p. injected with α-PD-1 antibody (100 μg per dose; clone RMP1-14, Bioxcell) on days 9, 12, 16 and 20 post tumor inoculation. For oral administration study, the mice were injected with 3-methylhistidine (dose: 3 mg per mouse), sodium hippurate (dose: 3 mg per mouse), disodium sebacate (dose: 3 mg per mouse), sodium ferulate (dose: 3 mg per mouse), or DHB (dose: 2.4 mg per mouse) in PBS buffer for 3 times every 4 days. α-PD-1 was injected on days 10, 14, 18 and 22. The tumor size was measured, and the tumor volume was calculated as ½×(length×width^2). Tumor-bearing mice were euthanized when the tumor size reached 1.5 cm in any diameter or when the animals became moribund with severe weight loss (>20%) or tumor ulceration.

Series [6] deals with CT26 colon carcinoma cells. As to the kind of experiment: CT26 tumor model, orally administered metabolites plus α-PD-1. The following applies: oral gavage 3 times every 4 days (DHB 2.4 mg, 3-methylhistidine 3 mg per mouse) plus α-PD-1 i.p. It is filed as in vivo, BALB/c mice. As for the experimental part:
FIG. 6: a) Therapeutic treatment regimen. BALB/c mice were s.c. inoculated with 1.5×10^5 CT26 colon carcinoma cells. The candidate agents were orally administrated 3 times every 4 days, 100 μg α-PD-1 was injected i.p. on days 10, 14, 18 and 22. b) Average tumor growth, c) individual tumor growth. Data represent the mean±s.e.m. (n=4-5).
as §3, with “For oral administration study, the mice were injected with 3-methylhistidine (dose: 3 mg per mouse), sodium hippurate (dose: 3 mg per mouse), disodium sebacate (dose: 3 mg per mouse), sodium ferulate (dose: 3 mg per mouse), or DHB (dose: 2.4 mg per mouse) in PBS buffer for 3 times every 4 days. α-PD-1 was injected on days 10, 14, 18 and 22.” left out, “Tumor-bearing mice were euthanized when the tumor size reached 1.5 cm in any diameter or when the animals became moribund with severe weight loss (>20%) or tumor ulceration.” left out

The test system of series [7] is activated T cells, MC38, B16F10, and CT26 tumor cells. As to the kind of experiment: In vitro cell viability of DHB at various concentrations. It is filed as cell-based. The note with it: concentration below 1 mM. As for the experimental part:
(§4) FIG. 7: a-d) In vitro cell viability of DHB at various concentrations in activated T cells, MC38, B16F10, and CT26 tumor cells. e) BALB/c mice were s.c. inoculated with 1.5×10^5 CT26 colon carcinoma cells. DHB (2.4 mg per dose) or 3-methylhistidine (3 mg per dose) was i.p. injected 3 times every 4 days, 100 μg α-PD-1 was i.p. injected on days 11, 15, and 20. Shown is the average tumor growth. Data represent the mean±s.e.m. (n=4-5).

The test system of series [8] is CT26 colon carcinoma cells. Nature of the series: CT26 tumor model, metabolite monotherapy i.p. without α-PD-1. The format is in vivo, BALB/c mice. The following applies: monotherapy without α-PD-1 IgG; i.p. DHB 2.4 mg or 3-methylhistidine 3 mg per dose. As for the experimental part:
as §4

Series [9] relates to CT26 colon carcinoma cells. Nature of the series: CT26 tumor model, oral prodrug #717 plus α-PD-1. The following applies: 2 mg per dose every other day starting day 8. The format is in vivo, BALB/c mice. As for the experimental part: FIG. 10: BALB/c mice were s.c. inoculated with 1.5×10^5 CT26 colon carcinoma cells. The prodrug #717 (2 mg per dose) were orally administrated every other day starting day 8. 100 μg α-PD-1 was injected i.p. on days 11 and 16. Shown is the average tumor growth. Data represent the mean±s.e.m. (n=5).

As to `O=C(O)c1ccc(O)c(O)c1` [DHB, 3,4-dihydroxybenzoate], in the series with OT-I CD8+ T cells [1], the “differentiation of CD44+CD62L+ central memory CD8+ T cells” value is reported as “significantly increased the differentiation”. The “induction of central memory CD8+ T cells in the absence of dendritic cells” value in the series on OT-I CD8+ T cells [2] is given as “can also induce central memory CD8^+ T cells”. The “frequency of Tcf1+CD8+ T cells” value in the series on OT-I CD8+ T cells [3] is listed as “increased the frequency”. Further, the “survival of activated CD8+ T cells” value with OT-I CD8+ T cells [4] is “significantly increased the survival”. Further, the “systemic antitumor efficacy of α-PD-1 treatment and CT26 tumor growth” value in series [5] (intratumoral every other day (DHB 0.5 mg, 3-methylhistidine 1 mg per mouse) plus α-PD-1 i.p.) was “improved the systemic antitumor efficacy of α-PD-1 treatment and slowed down the CT26 tumors growth”. Moreover, in series [5] (intratumoral metabolite plus α-PD-1 i.p.), the “tumor-free mice on day 70” value is 80%. In addition, in series [6], the “efficacy of α-PD-1 treatment” value was “improved the efficacy of α-PD-1 treatment”. Also, the cell toxicity entry in series [7] is listed as “low cell toxicity”. In addition, in series [8], the “tumor growth in vivo” value was “did not inhibit the tumor growth”.

As for `COC(=O)[C@H](Cc1cncn1C)NC(=O)OC(C)(C)C` [Prodrug #717, methyl Na-(tert-butoxycarbonyl)-Np-methyl-L-histidinate], the “synergy with α-PD-1 against tumor growth in vivo” value in [9] is given as “did not synergize”.

For the origin of these results see US20240299299A1, “COMPOSITIONS AND METHODS FOR INCREASING THE EFFICACY OF IMMUNOTHERAPIES AND VACCINES” (The Regents of the University of Michigan, priority 2021, published 2024).
